Measured values published in ChEMBL document CHEMBL3217463, “Design, synthesis and biological evaluation of -lactam hydroxamate based TACE inhibitors” (Medchemcomm, 2011).

Experiments:
Blood = assay: Antiinflammatory activity in human whole blood assessed as inhibition of LPS-induced TNFalpha secretion by ELISA; assay type: functional, tissue-based
Matrilysin = molecular target: T1, Matrilysin (Homo sapiens, UniProt P09237); assay: Inhibition of MMP7 (unknown origin) by fluorescence-based FRET assay
T1 sequence (P09237 whole entry): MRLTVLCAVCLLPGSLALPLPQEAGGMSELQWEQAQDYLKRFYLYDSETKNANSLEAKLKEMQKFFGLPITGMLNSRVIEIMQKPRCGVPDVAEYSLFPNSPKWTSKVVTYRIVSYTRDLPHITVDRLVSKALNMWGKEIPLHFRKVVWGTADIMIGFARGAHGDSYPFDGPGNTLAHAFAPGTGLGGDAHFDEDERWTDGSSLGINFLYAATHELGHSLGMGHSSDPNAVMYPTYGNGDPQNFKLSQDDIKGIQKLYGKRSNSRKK

Collagenase 3 = Collagenase 3 (Homo sapiens, UniProt P45452); assay: Inhibition of MMP13 (unknown origin) by fluorescence-based FRET assay
[1] = molecular target: T2, Disintegrin and metalloproteinase domain-containing protein 17 (Homo sapiens, UniProt P78536); assay: Ratio of IC50 for human catalytic domain of TACE to IC50 for MMP9 (unknown origin)
T2 sequence (P78536 whole entry, the tested form may be a part): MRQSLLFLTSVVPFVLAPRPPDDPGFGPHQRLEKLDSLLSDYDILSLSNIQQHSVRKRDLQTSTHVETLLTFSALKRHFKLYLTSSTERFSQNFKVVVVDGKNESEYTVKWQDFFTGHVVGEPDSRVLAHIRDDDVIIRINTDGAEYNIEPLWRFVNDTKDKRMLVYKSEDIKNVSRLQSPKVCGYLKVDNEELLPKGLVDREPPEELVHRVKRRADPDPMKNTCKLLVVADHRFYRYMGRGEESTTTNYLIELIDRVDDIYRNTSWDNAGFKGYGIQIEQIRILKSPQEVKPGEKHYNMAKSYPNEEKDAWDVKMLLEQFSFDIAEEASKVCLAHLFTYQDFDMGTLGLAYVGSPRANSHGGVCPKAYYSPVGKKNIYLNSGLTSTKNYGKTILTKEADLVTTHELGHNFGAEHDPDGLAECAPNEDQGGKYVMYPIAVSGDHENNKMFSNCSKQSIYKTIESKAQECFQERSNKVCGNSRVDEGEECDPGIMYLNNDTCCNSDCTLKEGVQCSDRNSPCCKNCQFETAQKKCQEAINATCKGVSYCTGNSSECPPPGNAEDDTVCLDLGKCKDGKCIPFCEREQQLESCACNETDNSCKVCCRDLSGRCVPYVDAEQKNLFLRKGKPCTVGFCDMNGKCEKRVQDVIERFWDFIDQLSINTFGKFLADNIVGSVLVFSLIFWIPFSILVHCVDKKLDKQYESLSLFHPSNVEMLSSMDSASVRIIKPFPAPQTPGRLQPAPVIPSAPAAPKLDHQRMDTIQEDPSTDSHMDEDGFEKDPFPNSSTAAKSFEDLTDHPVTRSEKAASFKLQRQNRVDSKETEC

Mus musculus = assay: Antiinflammatory activity in po dosed Swiss Albino mouse assessed as inhibition of LPS-induced TNFalpha secretion in blood treated 0.5 hrs before LPS and measured after 1 hr of LPS stimulus by ELISA; assay type: functional
Interstitial collagenase = molecular target: T3, Interstitial collagenase (Homo sapiens, UniProt P03956); assay: Inhibition of MMP1 (unknown origin) by fluorescence-based FRET assay
T3 sequence (P03956 whole entry): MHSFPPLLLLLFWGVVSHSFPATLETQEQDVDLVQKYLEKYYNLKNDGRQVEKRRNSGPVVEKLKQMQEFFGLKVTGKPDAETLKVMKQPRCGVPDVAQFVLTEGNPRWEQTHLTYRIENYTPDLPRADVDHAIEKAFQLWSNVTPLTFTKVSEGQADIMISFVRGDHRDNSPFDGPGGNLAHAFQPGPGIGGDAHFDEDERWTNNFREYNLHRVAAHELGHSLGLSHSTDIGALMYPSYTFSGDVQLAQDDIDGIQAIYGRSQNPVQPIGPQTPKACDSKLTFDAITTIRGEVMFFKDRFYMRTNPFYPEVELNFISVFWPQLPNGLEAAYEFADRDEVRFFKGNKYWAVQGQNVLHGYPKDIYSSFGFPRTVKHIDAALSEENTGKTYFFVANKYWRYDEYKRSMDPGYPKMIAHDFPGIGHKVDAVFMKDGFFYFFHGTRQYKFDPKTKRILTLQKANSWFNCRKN

[2] = molecular target: T2, Disintegrin and metalloproteinase domain-containing protein 17; assay: Ratio of IC50 for human catalytic domain of TACE to IC50 for MMP14 (unknown origin)
[3] = molecular target: T2, Disintegrin and metalloproteinase domain-containing protein 17; assay: Ratio of IC50 for human catalytic domain of TACE to IC50 for ADAM10 (unknown origin)
Stromelysin-1 = Stromelysin-1 (Homo sapiens, UniProt P08254); assay: Inhibition of MMP3 (unknown origin) by fluorescence-based FRET assay
Sequence of Stromelysin-1 (P08254 whole entry): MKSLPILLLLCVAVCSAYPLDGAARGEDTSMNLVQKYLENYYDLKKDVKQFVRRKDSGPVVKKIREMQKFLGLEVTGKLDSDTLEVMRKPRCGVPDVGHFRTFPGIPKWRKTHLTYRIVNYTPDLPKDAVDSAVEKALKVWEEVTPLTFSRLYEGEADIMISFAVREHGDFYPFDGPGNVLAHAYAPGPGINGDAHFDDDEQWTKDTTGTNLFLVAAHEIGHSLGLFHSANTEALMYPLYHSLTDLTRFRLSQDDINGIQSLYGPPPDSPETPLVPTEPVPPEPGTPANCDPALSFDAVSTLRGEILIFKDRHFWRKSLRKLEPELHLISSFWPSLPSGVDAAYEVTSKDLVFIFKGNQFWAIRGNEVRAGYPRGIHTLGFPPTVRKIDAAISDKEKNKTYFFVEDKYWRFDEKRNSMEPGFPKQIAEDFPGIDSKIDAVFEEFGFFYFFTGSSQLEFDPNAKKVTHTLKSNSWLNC

Neutrophil collagenase = Neutrophil collagenase (Homo sapiens, UniProt P22894); assay: Inhibition of MMP8 (unknown origin) by fluorescence-based FRET assay
Sequence of Neutrophil collagenase (P22894 whole entry): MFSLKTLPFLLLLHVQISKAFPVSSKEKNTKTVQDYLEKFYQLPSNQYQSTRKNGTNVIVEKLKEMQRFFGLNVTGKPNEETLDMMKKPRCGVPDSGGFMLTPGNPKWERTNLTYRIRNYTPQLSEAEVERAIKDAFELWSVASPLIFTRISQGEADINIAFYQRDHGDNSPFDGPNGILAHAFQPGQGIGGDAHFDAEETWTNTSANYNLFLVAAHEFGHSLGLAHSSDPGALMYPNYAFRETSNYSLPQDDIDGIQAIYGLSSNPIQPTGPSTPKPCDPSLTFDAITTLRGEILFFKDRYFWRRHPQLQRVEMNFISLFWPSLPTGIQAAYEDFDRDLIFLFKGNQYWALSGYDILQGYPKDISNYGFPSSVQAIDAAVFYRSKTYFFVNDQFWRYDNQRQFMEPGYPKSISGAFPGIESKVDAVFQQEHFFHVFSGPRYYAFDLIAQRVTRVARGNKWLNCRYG

[4] = molecular target: Matrix metalloproteinase-14 (Homo sapiens, UniProt P50281); assay: Inhibition of MMP14 (unknown origin) by fluorescence-based FRET assay
[5] = molecular target: T2, Disintegrin and metalloproteinase domain-containing protein 17; assay: Ratio of IC50 for human catalytic domain of TACE to IC50 for MMP3 (unknown origin)
[6] = molecular target: T2, Disintegrin and metalloproteinase domain-containing protein 17; assay: Inhibition of human catalytic domain of TACE assessed as inhibit the cleavage of the substrate by fluorescence-based FRET assay
[7] = molecular target: Matrix metalloproteinase-9 (Homo sapiens, UniProt P14780); assay: Inhibition of MMP9 (unknown origin) by fluorescence-based FRET assay
Sequence of Matrix metalloproteinase-9 (P14780 whole entry, the tested form may be a part): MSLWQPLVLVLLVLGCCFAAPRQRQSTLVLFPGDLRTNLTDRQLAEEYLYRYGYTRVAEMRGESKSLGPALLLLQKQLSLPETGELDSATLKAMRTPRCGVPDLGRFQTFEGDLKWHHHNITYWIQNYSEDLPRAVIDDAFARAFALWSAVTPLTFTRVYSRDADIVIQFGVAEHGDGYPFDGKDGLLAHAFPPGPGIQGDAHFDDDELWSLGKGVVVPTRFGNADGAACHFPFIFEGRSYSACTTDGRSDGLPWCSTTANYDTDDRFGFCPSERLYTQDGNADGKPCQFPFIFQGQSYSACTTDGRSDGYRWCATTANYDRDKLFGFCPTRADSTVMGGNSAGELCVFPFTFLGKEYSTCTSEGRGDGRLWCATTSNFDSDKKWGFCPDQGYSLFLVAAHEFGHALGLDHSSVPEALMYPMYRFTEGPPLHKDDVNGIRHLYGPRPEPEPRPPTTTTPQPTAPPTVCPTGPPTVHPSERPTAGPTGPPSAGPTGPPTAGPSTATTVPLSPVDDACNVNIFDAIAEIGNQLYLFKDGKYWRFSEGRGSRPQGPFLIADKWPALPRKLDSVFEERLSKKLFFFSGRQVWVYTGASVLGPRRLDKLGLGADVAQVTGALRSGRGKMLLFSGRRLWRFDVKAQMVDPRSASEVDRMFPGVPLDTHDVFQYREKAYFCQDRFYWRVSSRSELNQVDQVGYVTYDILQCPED

[8] = molecular target: T2, Disintegrin and metalloproteinase domain-containing protein 17; assay: Ratio of IC50 for human catalytic domain of TACE to IC50 for MMP1 (unknown origin)
[9] = molecular target: T2, Disintegrin and metalloproteinase domain-containing protein 17; assay: Ratio of IC50 for human catalytic domain of TACE to IC50 for MMP2 (unknown origin)
[10] = molecular target: T2, Disintegrin and metalloproteinase domain-containing protein 17; assay: Ratio of IC50 for human catalytic domain of TACE to IC50 for MMP7 (unknown origin)
[11] = molecular target: T2, Disintegrin and metalloproteinase domain-containing protein 17; assay: Ratio of IC50 for human catalytic domain of TACE to IC50 for MMP8 (unknown origin)
[12] = molecular target: T4, Disintegrin and metalloproteinase domain-containing protein 10 (Homo sapiens, UniProt O14672); assay: Inhibition of ADAM10 (unknown origin) using fluorescent substrate by fluorescence-based FRET assay
T4 sequence (O14672 whole entry): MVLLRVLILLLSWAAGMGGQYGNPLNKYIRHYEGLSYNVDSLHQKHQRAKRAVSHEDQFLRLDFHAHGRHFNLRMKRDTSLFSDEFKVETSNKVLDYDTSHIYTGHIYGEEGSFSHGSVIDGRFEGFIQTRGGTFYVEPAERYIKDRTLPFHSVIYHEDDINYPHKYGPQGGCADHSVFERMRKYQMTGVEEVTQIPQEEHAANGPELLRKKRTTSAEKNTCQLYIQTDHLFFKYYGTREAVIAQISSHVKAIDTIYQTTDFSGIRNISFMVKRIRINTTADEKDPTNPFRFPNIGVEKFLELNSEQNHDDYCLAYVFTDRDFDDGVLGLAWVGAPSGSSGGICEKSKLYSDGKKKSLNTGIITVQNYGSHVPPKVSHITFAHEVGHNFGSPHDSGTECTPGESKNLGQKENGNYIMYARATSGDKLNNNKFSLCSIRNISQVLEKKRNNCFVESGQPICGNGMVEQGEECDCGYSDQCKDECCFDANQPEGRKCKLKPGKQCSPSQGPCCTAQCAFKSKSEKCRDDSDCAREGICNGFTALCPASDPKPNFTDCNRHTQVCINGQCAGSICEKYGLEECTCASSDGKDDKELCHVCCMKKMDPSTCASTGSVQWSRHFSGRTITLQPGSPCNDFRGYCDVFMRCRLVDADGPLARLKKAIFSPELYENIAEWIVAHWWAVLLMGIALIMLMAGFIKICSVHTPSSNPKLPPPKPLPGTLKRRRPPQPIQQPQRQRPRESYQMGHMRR

[13] = molecular target: T2, Disintegrin and metalloproteinase domain-containing protein 17; assay: Ratio of IC50 for human catalytic domain of TACE to IC50 for MMP13 (unknown origin)
[14] = molecular target: 72 kDa type IV collagenase (Homo sapiens, UniProt P08253); assay: Inhibition of MMP2 (unknown origin) by fluorescence-based FRET assay
Sequence of 72 kDa type IV collagenase (P08253 whole entry): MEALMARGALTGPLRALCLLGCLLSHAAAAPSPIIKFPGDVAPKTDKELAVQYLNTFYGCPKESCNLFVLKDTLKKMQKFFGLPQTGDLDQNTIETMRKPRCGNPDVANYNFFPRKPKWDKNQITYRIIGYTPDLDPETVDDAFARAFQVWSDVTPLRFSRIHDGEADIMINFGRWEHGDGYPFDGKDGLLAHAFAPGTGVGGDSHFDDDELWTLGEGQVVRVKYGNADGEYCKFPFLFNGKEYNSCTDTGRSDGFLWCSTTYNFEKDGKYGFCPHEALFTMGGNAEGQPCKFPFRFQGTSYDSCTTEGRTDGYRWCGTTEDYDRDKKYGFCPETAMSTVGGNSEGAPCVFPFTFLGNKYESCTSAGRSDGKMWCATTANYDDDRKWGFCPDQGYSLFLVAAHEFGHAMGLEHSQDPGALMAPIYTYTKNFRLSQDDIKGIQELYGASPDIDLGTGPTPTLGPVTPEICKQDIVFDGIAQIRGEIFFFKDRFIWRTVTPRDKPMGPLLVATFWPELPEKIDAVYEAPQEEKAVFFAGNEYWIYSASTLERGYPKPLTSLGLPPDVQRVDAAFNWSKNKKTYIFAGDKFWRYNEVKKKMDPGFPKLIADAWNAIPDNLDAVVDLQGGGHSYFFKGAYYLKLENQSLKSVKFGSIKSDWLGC

With `CC(C)C[C@H](C(=O)NO)N1CC[C@@](N)(c2ccc(OCc3cc(Cl)nc4ccccc34)cc2)C1=O` the IC50 (Blood) was 0.45 µM.

For `CC(C)C[C@H](C(=O)NO)N1CC[C@@](N)(c2ccc(OCc3cc(-c4ccc(F)cc4)nc4ccccc34)cc2)C1=O`, the IC50 (Blood) was 0.29 µM.

In the case of `CC(C)C[C@H](C(=O)NO)N1CC[C@@](N)(c2ccc(OCc3cc(-c4ccccc4)nc4ccccc34)cc2)C1=O`, the IC50 (Blood) is reported as 3.06 µM.

Compound `CC(C)C[C@H](C(=O)NO)N1CC[C@@](N)(c2ccc(OCc3cc(-c4ccc(OCc5ccccc5)cc4)nc4ccccc34)cc2)C1=O` has an IC50 (Blood) of 4 µM.

For `CC(C)C[C@H](C(=O)NO)N1CC[C@@](N)(c2ccc(OCc3cc(-c4ccc(Cl)cc4)nc4ccccc34)cc2)C1=O`, the IC50 (Blood) was 0.286 µM.

`CC(C)C[C@H](C(=O)NO)N1CC[C@@](N)(c2ccc(OCc3cc(C(F)(F)F)nc4ccccc34)cc2)C1=O` showed an IC50 (Blood) of 0.47 µM.

For `Cc1ccc(-c2cc(COc3ccc([C@]4(N)CCN([C@H](CC(C)C)C(=O)NO)C4=O)cc3)c3ccccc3n2)cc1`, the IC50 (Blood) was 2.9 µM.

`CC(C)C[C@H](C(=O)NO)N1CC[C@@](N)(c2ccc(OCc3cc(C4CCCCC4)nc4ccccc34)cc2)C1=O` was tested, and the IC50 (Blood) was 0.177 µM.

`COc1ccc(-c2cc(COc3ccc([C@]4(N)CCN([C@H](CC(C)C)C(=O)NO)C4=O)cc3)c3ccccc3n2)cc1` gave an IC50 (Blood) of 0.25 µM.

`CC(C)C[C@H](C(=O)NO)N1CC[C@@](N)(c2ccc(OCc3cc(COC(C)C)nc4ccccc34)cc2)C1=O` showed an IC50 (Blood) of 0.123 µM.

`COCc1cc(COc2ccc([C@]3(N)CCN([C@H](CC(C)C)C(=O)NO)C3=O)cc2)c2ccccc2n1` showed an IC50 (Matrilysin) of 1.24 µM, an IC50 (Collagenase 3) of 1.23 µM and a Ratio IC50 [1] of over 500. For the same compound, the ED50 (Mus musculus) was 7.2 mg/kg, the IC50 (Interstitial collagenase) was 1.13 µM and the Ratio IC50 [2] was over 500. The Ratio IC50 [3] was over 500, the IC50 (Stromelysin-1) was 1.08 µM and the IC50 (Neutrophil collagenase) was 1.01 µM. For the same compound, the IC50 [4] was 1.07 µM, the Ratio IC50 [5] was over 500 and the IC50 [6] was 0.0021 µM. It also gave an IC50 [7] of 1.16 µM, an IC50 (Blood) of 0.011 µM and a Ratio IC50 [8] of over 500. For the same compound, the Ratio IC50 [9] was over 500, the Ratio IC50 [10] was over 500 and the Ratio IC50 [11] was over 500. It also gave an IC50 [12] of 1.21 µM, a Ratio IC50 [13] of over 500 and an IC50 [14] of 1.17 µM.
